The target of one data set is BCRP (Homo sapiens (Human), UniProt Q9UNQ0). Briefly: BCRP MDCKII efflux assay (Assay 7). The class given is in vitro ADME. The conditions noted are these: dog; efflux ratio Papp(B-A)/Papp(A-B), BCRP MDCKII cells; read-out: Assay 7 Pe Ratio. As to the method:
Assay conditions included with and without the BCRP-specific inhibitor, KO143, at a concentration of 0.3 μM to ascertain the contribution of BCRP to the efflux value of the test compound.
Final organic concentration in the assay was 1%.

The target of another data set is EGFR (Homo sapiens (Human), UniProt P00533). In words: ErbB Enzyme Assay (HTRF KinEASE-TK), Assay 3. The data set is classed as biochemical. A general note: Time-resolved FRET reads energy transfer from a long-lived donor to a nearby acceptor.
For data set [1], the target named is ErbB2 with Exon 20 YVMA insertion (HER2-YVMA) (Homo sapiens (Human), UniProt P04626, INS775YVMA). Briefly: Cellular Phosphorylation Assay, Assay 4 (constitutive ErbB2 phosphorylation, NIH 3T3 cells). The data set is classed as cell-based.
A further data set addresses ErbB2 WT (Homo sapiens (Human), UniProt P04626). In words: ErbB Enzyme Assay (HTRF KinEASE-TK), Assay 2. The class given is biochemical.
For the next data set, the target named is EGFR wild type (EGFR WT) (Homo sapiens (Human), UniProt P00533). In words: Cellular Phosphorylation Assay, Assay 5 (EGF-stimulated EGFR phosphorylation, NIH 3T3 cells). The data set is classed as cell-based.
Setting [2] is: cellular ErbB2 YVMA phosphorylation.
Setting [3] is: cellular EGFR WT phosphorylation, EGF-stimulated.
Where [4] appears, read: EGF-stimulated EGFR WT phosphorylation.

Chain of EGFR (P00533 25-1210): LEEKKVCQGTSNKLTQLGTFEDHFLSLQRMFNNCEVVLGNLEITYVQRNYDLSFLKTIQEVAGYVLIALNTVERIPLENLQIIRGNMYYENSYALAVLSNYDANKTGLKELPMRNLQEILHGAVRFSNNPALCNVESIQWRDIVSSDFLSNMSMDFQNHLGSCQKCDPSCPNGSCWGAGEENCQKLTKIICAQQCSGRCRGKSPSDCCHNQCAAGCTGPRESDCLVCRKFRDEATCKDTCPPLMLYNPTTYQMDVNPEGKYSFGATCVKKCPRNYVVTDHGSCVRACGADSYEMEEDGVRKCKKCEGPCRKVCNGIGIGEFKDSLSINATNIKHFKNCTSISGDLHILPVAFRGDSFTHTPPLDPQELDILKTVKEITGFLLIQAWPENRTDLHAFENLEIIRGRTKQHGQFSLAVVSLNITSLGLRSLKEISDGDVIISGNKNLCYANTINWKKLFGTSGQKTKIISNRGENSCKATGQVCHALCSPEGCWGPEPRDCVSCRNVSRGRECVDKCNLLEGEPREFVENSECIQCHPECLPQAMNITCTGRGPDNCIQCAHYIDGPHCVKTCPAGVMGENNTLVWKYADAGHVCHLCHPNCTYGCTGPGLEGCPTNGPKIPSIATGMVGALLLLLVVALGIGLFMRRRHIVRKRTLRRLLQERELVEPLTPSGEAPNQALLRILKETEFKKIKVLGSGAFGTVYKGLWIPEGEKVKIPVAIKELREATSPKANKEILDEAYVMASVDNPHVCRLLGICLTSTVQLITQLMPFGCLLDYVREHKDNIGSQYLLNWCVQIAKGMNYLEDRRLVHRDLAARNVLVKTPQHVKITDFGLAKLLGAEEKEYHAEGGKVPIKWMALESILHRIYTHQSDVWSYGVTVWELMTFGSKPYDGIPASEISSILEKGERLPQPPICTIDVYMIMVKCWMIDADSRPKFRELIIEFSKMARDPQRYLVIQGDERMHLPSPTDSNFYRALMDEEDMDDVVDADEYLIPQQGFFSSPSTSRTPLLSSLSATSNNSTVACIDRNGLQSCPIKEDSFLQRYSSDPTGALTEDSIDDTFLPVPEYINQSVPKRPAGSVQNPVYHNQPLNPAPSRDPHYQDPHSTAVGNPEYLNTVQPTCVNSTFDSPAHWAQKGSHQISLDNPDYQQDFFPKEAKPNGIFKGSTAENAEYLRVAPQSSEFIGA
Chain of EGFR wild type (EGFR WT) (P00533 25-1210): as above
Chain of ErbB2 with Exon 20 YVMA insertion (HER2-YVMA) (P04626 other isoform, or with tags, fused parts or gaps ins YVMA behind 775): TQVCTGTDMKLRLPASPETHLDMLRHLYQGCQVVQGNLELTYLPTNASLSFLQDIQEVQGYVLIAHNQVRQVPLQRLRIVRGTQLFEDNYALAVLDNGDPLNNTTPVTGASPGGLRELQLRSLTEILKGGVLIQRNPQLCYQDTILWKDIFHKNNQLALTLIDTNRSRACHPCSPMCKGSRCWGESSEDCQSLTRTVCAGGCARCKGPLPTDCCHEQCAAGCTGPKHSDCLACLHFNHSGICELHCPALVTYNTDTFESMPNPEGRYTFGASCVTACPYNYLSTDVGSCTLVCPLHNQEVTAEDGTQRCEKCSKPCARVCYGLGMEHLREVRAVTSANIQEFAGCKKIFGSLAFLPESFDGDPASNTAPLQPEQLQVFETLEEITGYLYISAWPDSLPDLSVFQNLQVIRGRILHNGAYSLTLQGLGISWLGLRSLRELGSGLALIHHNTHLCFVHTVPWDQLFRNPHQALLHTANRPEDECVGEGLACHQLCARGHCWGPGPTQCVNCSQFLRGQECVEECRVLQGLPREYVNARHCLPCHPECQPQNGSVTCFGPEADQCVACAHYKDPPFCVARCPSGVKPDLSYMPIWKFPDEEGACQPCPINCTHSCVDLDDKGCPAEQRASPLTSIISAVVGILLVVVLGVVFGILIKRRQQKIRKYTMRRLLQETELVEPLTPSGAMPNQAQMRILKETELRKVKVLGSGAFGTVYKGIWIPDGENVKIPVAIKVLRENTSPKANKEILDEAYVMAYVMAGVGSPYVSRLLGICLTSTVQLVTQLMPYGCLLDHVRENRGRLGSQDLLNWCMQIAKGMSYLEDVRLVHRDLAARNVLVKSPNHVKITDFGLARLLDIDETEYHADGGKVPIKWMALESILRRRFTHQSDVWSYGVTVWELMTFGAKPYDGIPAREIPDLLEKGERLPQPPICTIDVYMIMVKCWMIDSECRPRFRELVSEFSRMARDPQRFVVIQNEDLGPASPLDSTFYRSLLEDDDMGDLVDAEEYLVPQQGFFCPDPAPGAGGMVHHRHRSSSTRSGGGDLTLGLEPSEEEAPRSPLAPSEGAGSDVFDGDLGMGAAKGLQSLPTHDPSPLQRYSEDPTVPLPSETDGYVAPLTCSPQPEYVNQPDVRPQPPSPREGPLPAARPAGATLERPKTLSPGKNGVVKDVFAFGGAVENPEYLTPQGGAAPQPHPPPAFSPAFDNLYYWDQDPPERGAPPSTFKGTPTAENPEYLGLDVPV
Chain of BCRP (Q9UNQ0 whole entry): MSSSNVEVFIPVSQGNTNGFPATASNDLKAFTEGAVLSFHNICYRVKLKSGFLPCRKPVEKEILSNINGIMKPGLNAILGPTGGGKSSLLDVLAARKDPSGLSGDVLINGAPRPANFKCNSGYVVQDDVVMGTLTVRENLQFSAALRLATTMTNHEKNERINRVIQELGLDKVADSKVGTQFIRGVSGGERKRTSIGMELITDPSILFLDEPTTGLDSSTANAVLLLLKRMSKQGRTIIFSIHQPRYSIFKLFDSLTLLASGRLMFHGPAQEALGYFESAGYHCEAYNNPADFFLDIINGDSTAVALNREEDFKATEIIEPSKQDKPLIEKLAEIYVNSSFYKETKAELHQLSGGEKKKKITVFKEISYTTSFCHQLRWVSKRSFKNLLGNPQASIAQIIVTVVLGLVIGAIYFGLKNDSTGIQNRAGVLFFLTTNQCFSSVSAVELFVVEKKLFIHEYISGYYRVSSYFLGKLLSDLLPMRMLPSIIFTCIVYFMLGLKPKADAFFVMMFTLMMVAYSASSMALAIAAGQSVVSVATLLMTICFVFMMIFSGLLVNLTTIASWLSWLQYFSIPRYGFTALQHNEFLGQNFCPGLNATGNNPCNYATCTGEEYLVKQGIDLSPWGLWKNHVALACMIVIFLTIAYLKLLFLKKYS

With `C=CC(=O)N1CCC(c2ccc3ncnc(Nc4ccc(Oc5cnc6c(c5)ncn6C)c(Cl)c4)c3n2)CC1` [Example 271], the efflux ratio at 2 h, 1 µM at BCRP came to 37. Moreover, the IC50 (usually the concentration needed to halve the response being measured) against EGFR (EGFR enzyme assay) is 3.45 µM; in data set [1] (setting [2]), 31.6 nM; on ErbB2 WT (ErbB2 WT enzyme assay), 51.9 nM; on EGFR wild type (EGFR WT) (setting [3]), at least 5000 nM.

In the case of `C=CC(=O)N1CCCN(c2ccc3ncnc(Nc4ccc(Oc5ccc6c(c5)ncn6C)c(C)c4)c3n2)CC1` [Example 108, 1-(4-(4-((3-methyl-4-((1-methyl-1H-benzo[d]imidazol-5-yl)oxy)phenyl)amino)pyrido[3,2-d]pyrimidin-6-yl)-1,4-diazepan-1-yl)prop-2-en-1-one], on BCRP, the efflux ratio at 2 h, 1 µM was determined as 30.1. Also, the 50% inhibitory concentration (IC50) against EGFR (EGFR enzyme) is at least 10 µM; in data set [1] (ErbB2 YVMA phosphorylation), 7.4 nM; against ErbB2 WT (ErbB2 WT enzyme), 29.4 nM; against EGFR wild type (EGFR WT) (setting [4]), at least 5000 nM.

Turning to `C=CC(=O)N1C[C@H](c2ccc3ncnc(Nc4ccc(Oc5ccn6ncnc6c5)c(C)c4F)c3n2)C[C@H]1COC` (mixture of isomers) [Example 306], the efflux ratio at 2 h, 1 µM at BCRP amounted to 6.8. The IC50 was found to be 1.93 µM at EGFR (EGFR enzyme assay), 20.2 nM in data set [1] (setting [2]), 59.2 nM against ErbB2 WT (ErbB2 WT enzyme assay) and 3090 nM at EGFR wild type (EGFR WT) (setting [3]).

For `C=CC(=O)N1CCC(c2ccc3ncnc(Nc4ccc(Oc5cnc6c(c5)ncn6C)c(C)c4)c3n2)CC1` [Example 273], on BCRP, the efflux ratio at 2 h, 1 µM was determined as 15.3. Also, the IC50 against EGFR (EGFR enzyme assay) is 5.64 µM; in data set [1] (setting [2]), 25.7 nM; against ErbB2 WT (ErbB2 WT enzyme assay) it was 76.3 nM; against EGFR wild type (EGFR WT) (setting [3]), at least 5000 nM.

Take `C=CC(=O)N1CCN(c2ccc3ncnc(Nc4ccc(Oc5ccn6ncnc6c5)c(Cl)c4)c3n2)CC1(C)C` [Example 74, 1-(4-(4-((4-([1,2,4]triazolo[1,5-a]pyridin-7-yloxy)-3-chlorophenyl)amino)pyrido[3,2-d]pyrimidin-6-yl)-2,2-dimethylpiperazin-1-yl)prop-2-en-1-one]: the efflux ratio at 2 h, 1 µM at BCRP came to 6.4. Further, the IC50 was 1.71 µM against EGFR (EGFR enzyme), 5.7 nM in data set [1] (ErbB2 YVMA phosphorylation), 9.2 nM against ErbB2 WT (ErbB2 WT enzyme) and 298 nM against EGFR wild type (EGFR WT) (setting [4]).

Turning to `C=CC(=O)N1CCN(c2nc3c(Oc4ccc(Oc5ccc6c(c5)ncn6C)c(C)c4)ncnc3cc2OC)CC1` [Example 41, 1-(4-(7-methoxy-4-(3-methyl-4-((1-methyl-1H-benzo[d]imidazol-5-yl)oxy)phenoxy)pyrido[3,2-d]pyrimidin-6-yl)piperazin-1-yl)prop-2-en-1-one], the efflux ratio at 2 h, 1 µM at BCRP was 16.7. Moreover, the half-maximal inhibitory concentration (IC50) is 5.07 µM against EGFR (EGFR enzyme), 31 nM in data set [1] (ErbB2 YVMA phosphorylation), 130 nM against ErbB2 WT (ErbB2 WT enzyme) and at least 5000 nM against EGFR wild type (EGFR WT) (setting [4]).

`C=CC(=O)N1CC(c2ccc3ncnc(Nc4ccc(Oc5ccn6ncnc6c5)c(C)c4F)c3n2)C1` [Example 280]: at BCRP, the efflux ratio at 2 h, 1 µM was 8.7. In addition, the IC50 amounted to 2.09 µM against EGFR (EGFR enzyme assay), 21.1 nM in data set [1] (setting [2]), 50.4 nM at ErbB2 WT (ErbB2 WT enzyme assay) and 1890 nM against EGFR wild type (EGFR WT) (setting [3]).

On to `C=CC(=O)N1C[C@H](c2ccc3ncnc(Nc4cc(C)c(Oc5ccc6c(c5)ncn6C)cc4F)c3n2)CCC1(C)C` (racemic) [Example 141, rac-(R)-1-(5-(4-((2-fluoro-5-methyl-4-((1-methyl-1H-benzo[d]imidazol-5-yl)oxy)phenyl)amino)pyrido[3,2-d]pyrimidin-6-yl)-2,2-dimethylpiperidin-1-yl)prop-2-en-1-one], for which, at BCRP, the efflux ratio at 2 h, 1 µM was found to be 2.4. In addition, the IC50 was at least 10 µM against EGFR (EGFR enzyme), 17.6 nM in data set [1] (ErbB2 YVMA phosphorylation), 180 nM at ErbB2 WT (ErbB2 WT enzyme) and at least 5000 nM against EGFR wild type (EGFR WT) (setting [4]).

For `C=CC(=O)N1C[C@@H]2CC(c3ccc4ncnc(Nc5ccc(Oc6ccn7ncnc7c6)c(C)c5F)c4n3)C[C@H]1C2` (stereo partly shown) [Example 268], the efflux ratio at 2 h, 1 µM at BCRP worked out at 11.8. For the same molecule, the concentration for half-maximal inhibition (IC50) against EGFR (EGFR enzyme assay) is 4.78 µM; in data set [1] (setting [2]), 33.8 nM; on ErbB2 WT (ErbB2 WT enzyme assay), 156 nM; at EGFR wild type (EGFR WT) (setting [3]), at least 5000 nM.

Turning to `C=CC(=O)N1CCCN(c2ccc3ncnc(Nc4ccc(Oc5ccn6ncnc6c5)c(Cl)c4F)c3n2)CC1` [Example 98, 1-(4-(4-((4-([1,2,4]triazolo[1,5-a]pyridin-7-yloxy)-3-chloro-2-fluorophenyl)amino)pyrido[3,2-d]pyrimidin-6-yl)-1,4-diazepan-1-yl)prop-2-en-1-one], on BCRP, the efflux ratio at 2 h, 1 µM was 11. Further, the IC50 against EGFR (EGFR enzyme) came out at 3.36 µM; in data set [1] (ErbB2 YVMA phosphorylation), 18.9 nM; on ErbB2 WT (ErbB2 WT enzyme) it was 51.1 nM; against EGFR wild type (EGFR WT) (setting [4]) it was 2680 nM.

Consider `C=CC(=O)N1CC2CCC(C1)N2c1ccc2ncnc(Nc3ccc(Oc4ccn5ncnc5c4)c(C)c3F)c2n1` [Example 455], for which the efflux ratio at 2 h, 1 µM at BCRP amounted to 9.6. Besides, the 50% inhibitory concentration (IC50) against EGFR (EGFR enzyme assay) was found to be 0.0873 µM; in data set [1] (setting [2]), 4.8 nM; at ErbB2 WT (ErbB2 WT enzyme assay), 4.1 nM; at EGFR wild type (EGFR WT) (setting [3]), 193 nM.

Regarding `C=CC(=O)N1C[C@H]2CC[C@@H]1CN2c1ccc2ncnc(Nc3ccc(Oc4cnc5c(c4)ncn5C)c(C)c3F)c2n1` [Example 236, 1-((1R,4R)-5-(4-((2-fluoro-3-methyl-4-((3-methyl-3H-imidazo[4,5-b]pyridin-6-yl)oxy)phenyl)amino)pyrido[3,2-d]pyrimidin-6-yl)-2,5-diazabicyclo[2.2.2]octan-2-yl)prop-2-en-1-one], the efflux ratio at 2 h, 1 µM at BCRP came to 6.8. Besides, the half-inhibitory concentration (IC50) against EGFR (EGFR enzyme) is at least 10 µM; in data set [1] (ErbB2 YVMA phosphorylation), 24.6 nM; against ErbB2 WT (ErbB2 WT enzyme), 1170 nM; on EGFR wild type (EGFR WT) (setting [4]), at least 5000 nM.

With `CC#CC(=O)N1C[C@@H]2CC[C@H]1CN2c1ccc2ncnc(Nc3ccc(Oc4ccn5ncnc5c4)c(C)c3F)c2n1` [Example 333], the efflux ratio at 2 h, 1 µM on BCRP turned out to be 6.8. Moreover, the IC50 in data set [1] (setting [2]) came to 31 nM; at ErbB2 WT (ErbB2 WT enzyme assay) it was 155 nM; against EGFR wild type (EGFR WT) (setting [3]), 2130 nM.

Regarding `C=CC(=O)N1CCC12CN(c1ccc3ncnc(Nc4ccc(Oc5ccn6ncnc6c5)c(Cl)c4F)c3n1)C2` [Example 360], the IC50 is 0.121 µM against EGFR (EGFR enzyme assay), 4.1 nM in data set [1] (setting [2]), 8.8 nM against ErbB2 WT (ErbB2 WT enzyme assay) and 178 nM at EGFR wild type (EGFR WT) (setting [3]).

With `C=CC(=O)N1C[C@@H]2CC[C@H]1CN2c1ccc2ncnc(Nc3ccc(Oc4cnc5c(c4)ncn5C)c(C)c3F)c2n1` [Example 320], the half-maximal inhibitory concentration (IC50) came to 0.436 µM against EGFR (EGFR enzyme assay), 9.4 nM in data set [1] (setting [2]), 45.6 nM at ErbB2 WT (ErbB2 WT enzyme assay) and 78.3 nM against EGFR wild type (EGFR WT) (setting [3]).

Regarding `C=CC(=O)N1[C@@H]2CC[C@H]1C[C@@H](c1ccc3ncnc(Nc4ccc(Oc5ccn6ncnc6c5)c(C)c4)c3n1)C2` [Example 215, 1-((1R,3r,5S)-3-(4-((4-([1,2,4]triazolo[1,5-a]pyridin-7-yloxy)-3-methylphenyl)amino)pyrido[3,2-d]pyrimidin-6-yl)-8-azabicyclo[3.2.1]octan-8-yl)prop-2-en-1-one], the IC50 against EGFR (EGFR enzyme) was 3.31 µM; in data set [1] (ErbB2 YVMA phosphorylation), 29.5 nM; at ErbB2 WT (ErbB2 WT enzyme) it was 29.5 nM; against EGFR wild type (EGFR WT) (setting [4]) it was at least 5000 nM.

`C=CC(=O)N1C[C@H](c2ccc3ncnc(Nc4ccc(Oc5ccn6ncnc6c5)c(C)c4F)c3n2)C[C@H]1C` (mixture of isomers) [Example 387]: the IC50 was 2.2 µM against EGFR (EGFR enzyme assay), 60.8 nM in data set [1] (setting [2]), 52.1 nM against ErbB2 WT (ErbB2 WT enzyme assay) and 4280 nM against EGFR wild type (EGFR WT) (setting [3]).

As for `C=CC(=O)N1CC(Sc2ccc3ncnc(Nc4ccc(Oc5ccc6c(c5)ncn6C)c(C)c4F)c3n2)C1` [Example 61, 1-(3-((4-((2-fluoro-3-methyl-4-((1-methyl-1H-benzo[d]imidazol-5-yl)oxy)phenyl)amino)pyrido[3,2-d]pyrimidin-6-yl)thio)azetidin-1-yl)prop-2-en-1-one], the IC50 against EGFR (EGFR enzyme) stood at 0.283 µM; in data set [1] (ErbB2 YVMA phosphorylation) it was 34.4 nM; against ErbB2 WT (ErbB2 WT enzyme), 16.3 nM; on EGFR wild type (EGFR WT) (setting [4]), 976 nM.

In the case of `C=CC(=O)N1[C@@H]2CC[C@H]1CC(c1ccc3ncnc(Nc4cc(C)c(Oc5ccc6c(c5)ncn6C)cc4F)c3n1)C2` (mixture of isomers) [Example 130, rac-1-((1R,5S)-3-(4-((2-fluoro-5-methyl-4-((1-methyl-1H-benzo[d]imidazol-5-yl)oxy)phenyl)amino)pyrido[3,2-d]pyrimidin-6-yl)-8-azabicyclo[3.2.1]octan-8-yl)prop-2-en-1-one], the 50% inhibitory concentration (IC50) is 7.34 µM against EGFR (EGFR enzyme), 19.9 nM in data set [1] (ErbB2 YVMA phosphorylation), 135 nM on ErbB2 WT (ErbB2 WT enzyme) and at least 5000 nM against EGFR wild type (EGFR WT) (setting [4]).

Take `C=CC(=O)N1CCC(Oc2nc3c(Nc4ccc(Oc5ccc6cn(C)nc6c5)c(Cl)c4F)ncnc3cc2OC)CC1` [Example 156, 1-(4-((4-((3-chloro-2-fluoro-4-((2-methyl-2H-indazol-6-yl)oxy)phenyl)amino)-7-methoxypyrido[3,2-d]pyrimidin-6-yl)oxy)piperidin-1-yl)prop-2-en-1-one]: the IC50 against EGFR (EGFR enzyme) stood at 0.11 µM; in data set [1] (ErbB2 YVMA phosphorylation), 19.6 nM; on ErbB2 WT (ErbB2 WT enzyme) it was 20.3 nM; against EGFR wild type (EGFR WT) (setting [4]) it was 215 nM.

For `C=CC(=O)N1C[C@H]2CC[C@@H]1C[C@@H]2c1ccc2ncnc(Nc3ccc(Oc4cnc5c(c4)ncn5C)c(C)c3F)c2n1` [Example 422], the IC50 at EGFR (EGFR enzyme assay) is 4.01 µM; in data set [1] (setting [2]), 51.7 nM; against ErbB2 WT (ErbB2 WT enzyme assay), 157 nM; against EGFR wild type (EGFR WT) (setting [3]), at least 5000 nM.

As for `CC#CC(=O)N1CCC12CN(c1ccc3ncnc(Nc4cc(C)c(Oc5ccn6ncnc6c5)cc4F)c3n1)C2` [Example 188, 1-(6-(4-((4-([1,2,4]triazolo[1,5-a]pyridin-7-yloxy)-2-fluoro-5-methylphenyl)amino)pyrido[3,2-d]pyrimidin-6-yl)-1,6-diazaspiro[3.3]heptan-1-yl)but-2-yn-1-one], the IC50 against EGFR (EGFR enzyme) is at least 10 µM; in data set [1] (ErbB2 YVMA phosphorylation), 2020 nM; at ErbB2 WT (ErbB2 WT enzyme), 1450 nM; at EGFR wild type (EGFR WT) (setting [4]), at least 5000 nM.
